The record followed here is patent US4755510A, “Novel anticonvulsive tetrahydro-1,2,4-oxadiazine-5-thion derivatives and use” (Richter Gedeon Vegyeszeti Gyar R.T., priority 1984, dated 1988).

Where two headings read alike, the source gives them in different places.

Data set [1] deals with Male CFLP (LATI) mice. Kind of data set: Maximal electroshock (MES), protection from tonic extensoric spasm of the lower limbs. The format is in vivo. Particulars: Mus musculus, po; for ED50: read-out: Anticonvulsive activity MES ED50; for inhibition at 30 mg/kg: read-out: MES inhibition (%). As to the method: (§1) The compound to be tested was suspended in 2 percent aqueous Tween 80 (polyoxyethylene sorbitane monolaurate) solution and it was orally administered to the animals through a bougie in a dose of 30 mg/kg when the anticonvulsive activity was tested, while in a dose of 120 mg/kg when the neurotoxic activity was examined. The effect triggered was measured after 1 hour of the administration. Male CFLP (LATI) mice having a weight of 18 to 22 g were used in the tests.
The animals were shocked with a corneal electrode (20 mA, 0.2 sec.) (H. Schachs Elektronik, Marchs, Augstatten, Germany, "schockreizgerat" typ. 207) according to the method of E. A. Swinyard et al. (J. Pharmacol. Exp. Ther. 106, 318 (1952)]. 100% of the control animals responded to the stimulus by the tonic extensoric spasm of the lower limbs. The lack of these occurences was attributed to the protection obtained by the treatment.
MES: maximal electroshock

Data set [2] relates to Male CFLP (LATI) mice. Kind of data set: Spasm stimulated by Pentetrazole (PTT). In kind it is in vivo. The following applies: po; for ED50: Mus musculus, read-out: Anticonvulsive activity PTT TE (tonic extensoric spasm) ED50. As to the method:
as §1
According to the method of G. M. Everett and R. K. Richard [J. Pharmacol. Exp. Ther., 81, 402, (1944)] the test animals were treated with 125 mg/kg of Pentetrazole (pentamethylene tetrazole) after 1 hour of the administration of the compound to be tested. The lack of the clonic spasm (KI) and the tonic extensoric spasm of the lower limbs (TE) was attributed to the protection obtained as a result of the treatment.
PTT: inhibition of the spasm stimulated by pentetrazole
TE: tonic extensoric spasm

Data set [3] in a line: Acute toxicity (LD50). The format is in vivo. The following applies: mouse, in vivo, po; one dose, observation through 14 days; probit analysis; read-out: Acute tox. LD50. The procedure:
as §1
(§2) The toxicity of the compounds was examined after the administration of 1000 mg/kg of the test compound in one dose by an observation through 14 days. The LD50 value (50 percentile lethal dose) was calculated by probite analysis on the basis of the percentile ratio of the animals died within the 14 days.

Data set [4] has as its system Male CFLP (LATI) mice. Put plainly: Spasm stimulated by strychnine (Str). In kind it is in vivo. The following applies: Mus musculus, po, 1 h, read-out: Anticonvulsive activity Str (spasm stimulated by strychnine) ED50. As to the method:
as §1
According to the method of T. L. Kerley et al. [J. Pharmacol. Exp. Ther. 132, 360 (1961)] the test animals were i. p. treated with 2.5 mg/kg of strychnine after 1 hour of the administration of the active ingredient to be tested.
Str: inhibition of the spasm stimulated by strychnine

The nature of data set [5]: Neurotoxicity (muscle uncoordination), rotating bar (FR). The arrangement: species or system mice (male CFLP (LATI)). The following applies: mouse, in vivo, po. As to the method:
as §1
The change of the coordinated muscle motion was examined on a rotating bar according to the method of C. J. Carr [J. Pharmacol. Exp. Ther., 121, 354 (1957)] (diameter: 20 mm, number of revolutions: 12/minute). The trained control animals could stay on the bar for 120 seconds. After 1 hour of the administration of the test compound, it was examined which percent of the animals fell down from the rotating bar within 120 seconds.

Data set [6] concerns Male CFLP (LATI) mice. Kind of data set: Acute toxicity (LD50). The format is in vivo. The following applies: one dose, observation through 14 days; probit analysis. The procedure: as §1, §2

With `CC(=O)N1O[C@H](C)C(=S)N[C@@H]1c1ccccc1` (relative stereo) [A], the median effective dose (ED50) turned out to be 11.9 mg/kg in data set [1] (1 h) and 6.1 mg/kg in data set [2] (1 h). For the same compound, the LD50 at 336 h in data set [3] is 1000 mg/kg.

Regarding `CC(=O)N1O[C@H](C)C(=S)N[C@@H]1c1ccccc1C` (relative stereo) [C, 2-Acetyl-3-(2-methylphenyl)-6-methyl-tetrahydro-1,2,4-oxadiazine-5-thion], the ED50 in data set [1] (1 h) was 10 mg/kg; in data set [2] (1 h), 4.3 mg/kg; in data set [4], 25.6 mg/kg. In addition, in data set [3], the LD50 at 336 h worked out at 1000 mg/kg.

Regarding `CC(=O)N1O[C@H](C)C(=S)N[C@@H]1c1ccc(N(C)C)cc1` (relative stereo) [D], in data set [1] (1 h), the ED50 was found to be 30 mg/kg. In data set [2] (1 h), the 50% effective dose (ED50) stood at 9.9 mg/kg and the “Anticonvulsive activity PTT K1 (clonic spasm) ED50” value (“Anticonvulsive activity PTT K1” for short) came to 0 mg/kg. For the same compound, in data set [3], the 50% lethal dose (LD50) at 336 h was found to be 1000 mg/kg.

Consider `CC[C@H]1ON(C(C)=O)[C@@H](c2ccccc2)NC1=S` (relative stereo) [F], for which the inhibition at 30 mg/kg in data set [1] (1 h) is 40%. For the same compound, in data set [2] (1 h), the ED50 came to 15.4 mg/kg and the “Anticonvulsive activity PTT K1” value was 0 mg/kg. Besides, in data set [3], the LD50 at 336 h was found to be 1000 mg/kg.

With `CC(=O)N1O[C@H](C)C(=S)N[C@@H]1c1ccccc1` [B], the median effective dose (ED50) in data set [1] (1 h) is 16.1 mg/kg; in data set [2] (1 h), 12.6 mg/kg. For the same compound, the LD50 at 336 h in data set [3] turned out to be 1000 mg/kg.

For the compound `O=C1NC(=O)C(c2ccccc2)(c2ccccc2)N1` [Compound K1, Diphenyl hydantoin, reference compound], the ED50 in data set [1] (1 hour after administration, corneal electrode 20 mA, 0.2 sec) turned out to be 8.3 mg/kg; in data set [2] (Pentetrazole 125 mg/kg 1 hour after administration, tonic extensoric spasm) it was 9.9 mg/kg. In data set [5], this compound came in with a TD50 at 1 h of 47.7 mg/kg. In data set [6], the “Acute tox. LD50” value is 278 mg/kg.

Turning to `CC(=O)N1OCC(=O)NC1c1ccccc1` (centres unmarked) [Compound K2, 2-Acetyl-3-phenyl-tetrahydro-1,2,4-oxadiazine-5-one, reference compound], the figures for the median effective dose (ED50) in data set [1] (1 h) and in data set [2] (1 h) were 22.7 mg/kg and 13.4 mg/kg, respectively. Also, in data set [5] (rotating bar 12/minute, 120 seconds, 1 hour after administration, read-out: Neurotox. FR (rotating bar) ED50), the TD50 at 1 h came to 130 mg/kg.

For `CC(=O)N1OCC(=S)NC1c1ccccc1` (centres unmarked) [E, 2-Acetyl-3-phenyl-tetrahydro-1,2,4-oxadiazine-5-thion], the inhibition at 30 mg/kg in data set [1] (1 h) came to 10%. In addition, in data set [2] (1 h), the median effective dose (ED50) is 16.6 mg/kg and the “Anticonvulsive activity PTT K1” value was 0 mg/kg. The median lethal dose (LD50) at 336 h in data set [3] was 1000 mg/kg.
